{"source": "ChEMBL document CHEMBL3244182", "about": "“Potential bis-alkylating agents for cancer chemotherapy. Approaches to the synthesis of 2-sulfonyl-1,4-bis(methanesulfonoxy)butanes” (1978)", "key": {"[1]": {"test_system": "KB", "experiment": "In vitro antitumor activity against human KB cells treated as an alcoholic solution", "type": "functional", "conditions": "read-out: ED50 (the source's name)"}, "[2]": {"test_system": "L1210", "experiment": "In vivo antitumor activity against mouse L1210 cells allografted in BDF1 mouse at 400 mg/kg, ip administered as three doses as suspension in klucel", "type": "functional, organism-based", "set-up": "dose 400 mg/kg"}, "[3]": {"test_system": "P388", "experiment": "In vivo antitumor activity against mouse P388 cells allografted in BDF1 mouse at 400 mg/kg, ip administered as three doses as suspension in klucel", "type": "functional, organism-based", "set-up": "dose 400 mg/kg"}, "[4]": {"test_system": "L1210", "experiment": "In vivo antitumor activity against mouse L1210 cells allografted in BDF1 mouse at 400 mg/kg, ip administered as single dose as suspension in saline", "type": "functional, organism-based", "set-up": "dose 400 mg/kg"}, "[5]": {"test_system": "L1210", "experiment": "In vivo antitumor activity against mouse L1210 cells allografted in BDF1 mouse at 400 mg/kg, ip administered as nine doses as suspension in klucel", "type": "functional, organism-based", "set-up": "dose 400 mg/kg"}, "[6]": {"test_system": "P388", "experiment": "In vivo antitumor activity against mouse P388 cells allografted in CDF1 mouse at 200 mg/kg, ip administered as nine doses as suspension in klucel", "type": "functional, organism-based", "set-up": "dose 200 mg/kg"}, "[7]": {"test_system": "L1210", "experiment": "In vivo antitumor activity against mouse L1210 cells allografted in BDF1 mouse at 200 mg/kg, ip administered as nine doses as suspension in saline with Tween 80", "type": "functional, organism-based", "set-up": "dose 200 mg/kg"}, "[8]": {"test_system": "L1210", "experiment": "In vivo antitumor activity against mouse L1210 cells allografted in BDF1 mouse at 400 mg/kg, ip administered as single dose as suspension in CMC", "type": "functional, organism-based", "set-up": "dose 400 mg/kg"}}, "note": "Activity calls are given as the source filed them. No cut-off for these calls is given here."}
{"compound": "CCCCCCCCCCCS(=O)(=O)C(CCOS(C)(=O)=O)COS(C)(=O)=O", "note": "(racemic)", "values": [{"measurement": "EC50", "setting": "[1]", "result": 31, "unit": "µg/mL"}, {"measurement": "Activity", "setting": "[2]", "result": "inactive"}, {"measurement": "Activity", "setting": "[3]", "result": "inactive"}]}
{"compound": "CCCCS(=O)(=O)C(CCOS(C)(=O)=O)COS(C)(=O)=O", "note": "(racemic)", "values": [{"measurement": "Activity", "setting": "[4]", "result": "inactive"}]}
{"compound": "COc1ccc(OCCS(=O)(=O)C(CCOS(C)(=O)=O)COS(C)(=O)=O)cc1", "note": "(racemic)", "values": [{"measurement": "Activity", "setting": "[5]", "result": "inactive"}]}
{"compound": "COc1ccccc1C(=O)Nc1cc2c(cc1N1CCNCC1C)n(C)c(=O)n2C", "note": "(racemic)", "values": [{"measurement": "Activity", "setting": "[6]", "result": "inactive"}]}
{"compound": "CS(=O)(=O)OCCC(COS(C)(=O)=O)S(=O)(=O)CCCOc1ccccc1-c1ccccc1", "note": "(racemic)", "values": [{"measurement": "Activity", "setting": "[7]", "result": "inactive"}]}
{"compound": "CS(=O)(=O)OCCC(COS(C)(=O)=O)S(=O)(=O)Cc1ccccc1", "note": "(racemic)", "values": [{"measurement": "Activity", "setting": "[4]", "result": "inactive"}]}
{"compound": "CS(=O)(=O)OCCC(COS(C)(=O)=O)S(=O)(=O)c1ccccc1", "note": "(racemic)", "values": [{"measurement": "Activity", "setting": "[8]", "result": "inactive"}]}
